Experimental data from PubChem BioAssay AID248 (DTP/NCI, 2004).
Several values for one entry are separate records, joined by “and”; a condition that tells them apart may be missing. Equal values may be shown once. Inconclusive results and toxic doses are left out. Rule as the data show it: active = T/C of 150% or more; inactive = T/C below 125%.

Tested on: L1210 leukemia ip in BDF1 mice, survival T/C
Test: NCI In Vivo Anticancer Drug Screen. Data for tumor model L1210 Leukemia (intraperitoneal) in B6D2F1 (BDF1) mice
Conditions: endpoint: mean survival time, higher = longer survival
How it was run: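 In this screen, tumor-bearing mice given compound are compared to those given vehicle, and their survival values are reported as a treated-to-control quotient.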

[1] = dose: 100.0 mg/kg/injection, schedule: Q04DX003 (ip), vehicle: saline with Tween-80
[2] = dose: 200.0 mg/kg/injection, schedule: Q04DX003 (ip), vehicle: saline with Tween-80
[3] = dose: 400.0 mg/kg/injection, schedule: Q04DX003 (ip), vehicle: saline with Tween-80
[4] = dose: 100.0 mg/kg/injection, schedule: Q01DX009 (ip), vehicle: Klucel (hydroxypropylcellulose) (HPC)
[5] = dose: 100.0 mg/kg/injection, schedule: Q04DX003 (ip), vehicle: Klucel (hydroxypropylcellulose) (HPC)
[6] = dose: 200.0 mg/kg/injection, schedule: Q01DX009 (ip), vehicle: Klucel (hydroxypropylcellulose) (HPC)
[7] = dose: 200.0 mg/kg/injection, schedule: Q04DX003 (ip), vehicle: Klucel (hydroxypropylcellulose) (HPC)
[8] = dose: 400.0 mg/kg/injection, schedule: Q01DX009 (ip), vehicle: Klucel (hydroxypropylcellulose) (HPC)
[9] = dose: 400.0 mg/kg/injection, schedule: Q04DX003 (ip), vehicle: Klucel (hydroxypropylcellulose) (HPC)
[10] = dose: 100.0 mg/kg/injection, schedule: Q04DX003 (ip), vehicle: saline
[11] = dose: 200.0 mg/kg/injection, schedule: Q04DX003 (ip), vehicle: saline
[12] = dose: 100.0 mg/kg/injection, schedule: Q04DX002 (ip), vehicle: Klucel (hydroxypropylcellulose) (HPC)
[13] = dose: 200.0 mg/kg/injection, schedule: Q04DX002 (ip), vehicle: Klucel (hydroxypropylcellulose) (HPC)
[14] = dose: 400.0 mg/kg/injection, schedule: Q04DX002 (ip), vehicle: Klucel (hydroxypropylcellulose) (HPC)
[15] = dose: 100.0 mg/kg/injection, schedule: Q01DX009 (ip), vehicle: saline with Tween-80
[16] = dose: 200.0 mg/kg/injection, schedule: Q01DX009 (ip), vehicle: saline with Tween-80
[17] = dose: 50.0 mg/kg/injection, schedule: Q01DX009 (ip), vehicle: saline with Tween-80
[18] = dose: 50.0 mg/kg/injection, schedule: Q04DX003 (ip), vehicle: saline with Tween-80

Measured: T/C

CC(C)(C)NCCCC(=O)O
inactive: [1] 110 % of control | [2] 100 % of control | [3] 92 % of control

COC(=O)c1cc(Cl)ccc1O
inactive: dose: 37.5 mg/kg/injection, schedule: Q04DX003 (ip), vehicle: Klucel (hydroxypropylcellulose) (HPC) 100 % of control | dose: 75.0 mg/kg/injection, schedule: Q04DX003 (ip), vehicle: Klucel (hydroxypropylcellulose) (HPC) 100 % of control | dose: 150.0 mg/kg/injection, schedule: Q04DX003 (ip), vehicle: Klucel (hydroxypropylcellulose) (HPC) 92 % of control

CCC(C)C1CC1(Br)Br (stereo not given)
inactive: [1] 100 % of control | [2] 100 % of control | [3] 98 % of control

C1=C(c2ccccc2)CCN(C2(c3ccccc3)CCCCC2)C1
inactive: dose: 100.0 mg/kg/injection, schedule: Q01DX001 (ip), vehicle: saline 101 % of control | dose: 200.0 mg/kg/injection, schedule: Q01DX001 (ip), vehicle: saline 93 % of control | dose: 400.0 mg/kg/injection, schedule: Q01DX001 (ip), vehicle: saline 95 % of control

O=C(OCC(COC(=O)c1ccccc1)(COC(=O)c1ccccc1)COC(=O)c1ccccc1)c1ccccc1
inactive: [4] 91 % of control | [5] 91 % of control | [6] 105 % of control | [7] 99 % of control | [8] 96 % of control | [9] 98 % of control

CCC[CH2][Sn]1([CH2]CCC)[O]C(=O)c2ccc(C(=O)O)cc2C(=O)[O]1
inactive: dose: 5.0 mg/kg/injection, schedule: Q01DX001 (ip), vehicle: saline 105 % of control

[NH-]C(CCC(N)=O)C(=O)O.[NH-]C(CCC(N)=O)C(=O)O.[Pd+2] (stereo not given)
inactive: dose: 100.0 mg/kg/injection, schedule: Q04DX002 (ip), vehicle: saline 102 % of control | [10] 98 % of control | dose: 200.0 mg/kg/injection, schedule: Q04DX002 (ip), vehicle: saline 102 % of control | [11] 92 % of control | dose: 400.0 mg/kg/injection, schedule: Q04DX002 (ip), vehicle: saline 102 % of control

CCCCCC[n+]1cccc(C(N)=O)c1
inactive: [5] 100 % of control | [7] 94 % of control

Cc1cc(O)cc(C)c1C1=NCC(C)S1 (stereo not given)
inactive: [12] 104 % of control | [13] 90 % of control | [14] 90 % of control

O=[N+]([O-])c1ccc2c(c1)/C(=C1/c3cc(Br)ccc3-c3ccc([N+](=O)[O-])cc31)c1cc(Br)ccc1-2
inactive: [1] 87 % of control | [2] 97 % of control | [3] 92 % of control

O=c1ccc2cc3cc(I)c(O)c(I)c3oc-2c1I
inactive: [4] 101 % of control | [6] 99 % of control

CN(C)c1ccc(/C=N/NC(=O)Cc2cccc3ccccc23)cc1
inactive: [15] 90 % of control | [16] 86 % of control | dose: 400.0 mg/kg/injection, schedule: Q01DX009 (ip), vehicle: saline with Tween-80 86 % of control

O=[N+]([O-])c1cc2c(cc1Br)nc(Cl)c1cc(Br)ccc12
inactive: [4] 89 % of control | [5] 104 % of control | [6] 91 % of control | [7] 100 % of control | [9] 96 % of control

COc1cccc2c(Cl)c(CCl)c(C)nc12
inactive: dose: 12.5 mg/kg/injection, schedule: Q01DX009 (ip), vehicle: saline with Tween-80 97 % of control | dose: 25.0 mg/kg/injection, schedule: Q01DX009 (ip), vehicle: saline with Tween-80 97 % of control | dose: 25.0 mg/kg/injection, schedule: Q04DX003 (ip), vehicle: saline with Tween-80 92 % of control | [17] 92 % of control | [18] 97 % of control | [1] 94 % of control and 96 % of control

CC(=O)OCCc1cccc(C)c1
inactive: [12] 104 % of control | [13] 115 % of control | [14] 108 % of control

COc1ccc2c(c1)CC(=CO)CC2=O.COc1ccc2c(c1)CC/C(=C/O)C2=O.[Cu]
inactive: [15] 98 % of control | dose: 100.0 mg/kg/injection, schedule: Q04DX003 (ip), vehicle: saline sonified 101 % of control | [16] 110 % of control | dose: 200.0 mg/kg/injection, schedule: Q04DX003 (ip), vehicle: saline sonified 90 % of control | dose: 400.0 mg/kg/injection, schedule: Q04DX003 (ip), vehicle: saline sonified 104 % of control

CCC(C(=O)c1ccccc1)C(O)(C(F)(F)F)C(F)(F)F (stereo not given)
inactive: dose: 100.0 mg/kg/injection, schedule: Q01DX001 (ip), vehicle: Klucel (hydroxypropylcellulose) (HPC) 96 % of control | [5] 94 % of control | dose: 200.0 mg/kg/injection, schedule: Q01DX001 (ip), vehicle: Klucel (hydroxypropylcellulose) (HPC) 106 % of control | [7] 104 % of control | dose: 400.0 mg/kg/injection, schedule: Q01DX001 (ip), vehicle: Klucel (hydroxypropylcellulose) (HPC) 95 % of control | [9] 104 % of control

CCOC(=O)CCC1CCCC1CC(=O)OCC (stereo not given)
inactive: dose: 100.0 mg/kg/injection, schedule: Q01DX001 (ip), vehicle: acetone 97 % of control | dose: 200.0 mg/kg/injection, schedule: Q01DX001 (ip), vehicle: acetone 101 % of control | dose: 400.0 mg/kg/injection, schedule: Q01DX001 (ip), vehicle: acetone 86 % of control

O=C(C1=CC=CC1=P(c1ccccc1)(c1ccccc1)c1ccccc1)C(Cl)(Cl)Cl
inactive: [1] 96 % of control | [2] 95 % of control | [3] 96 % of control

CCn1c(C)cc(=O)n1-c1ccc([N+](=O)[O-])cc1
inactive: [5] 96 % of control | [7] 104 % of control | [9] 98 % of control

CC(=O)CCC(=O)OCCOC(=O)CCC(C)=O
inactive: dose: 100.0 mg/kg/injection, schedule: Q01DX009 (ip), vehicle: saline 98 % of control and 105 % of control | [10] 96 % of control and 104 % of control | dose: 200.0 mg/kg/injection, schedule: Q01DX009 (ip), vehicle: saline 93 % of control and 95 % of control | [11] 100 % of control | dose: 400.0 mg/kg/injection, schedule: Q01DX009 (ip), vehicle: saline 98 % of control and 104 % of control | dose: 400.0 mg/kg/injection, schedule: Q04DX003 (ip), vehicle: saline 100 % of control and 106 % of control

COc1ccccc1OCCOCCN(C)C1CC2CCC1(C)C2(C)C (stereo not given)
inactive: [5] 93 % of control

NC(=O)c1ncn[nH]1
inactive: [17] 113 % of control | [18] 104 % of control | [15] 108 % of control | [1] 110 % of control | [16] 120 % of control | [2] 106 % of control

CCCCCCCCCC(=O)N/N=C/c1ccco1
inactive: [4] 87 % of control | [6] 99 % of control

COC(=O)c1cn2ccc(C#N)cc2c1C(=O)OC
inactive: dose: 100.0 mg/kg/injection, schedule: Q04DX002 (ip), vehicle: saline with Tween-80 89 % of control | dose: 200.0 mg/kg/injection, schedule: Q04DX002 (ip), vehicle: saline with Tween-80 95 % of control | dose: 400.0 mg/kg/injection, schedule: Q04DX002 (ip), vehicle: saline with Tween-80 95 % of control

Cc1cc(C)c(S(=O)(=O)c2c(C)cc(C)c([N+](=O)[O-])c2C)c(C)c1[N+](=O)[O-]
inactive: [4] 98 % of control | [5] 92 % of control | [6] 88 % of control | [7] 93 % of control | [8] 88 % of control | [9] 90 % of control
